The source of these data is ChEMBL document CHEMBL5233215, “Recent developments of chalcones as potential antibacterial agents in medicinal chemistry” (Eur J Med Chem, 2020).

The test system of one test is Micrococcus luteus. In words: Antibacterial activity Micrococcus luteus NBRC 333 assessed as inhibition of bacterial growth after 48 hrs by two fold dilution method. It counts as functional.
Test [1] deals with Staphylococcus epidermidis. In words: Antibacterial activity Staphylococcus epidermidis NBRC 12993 assessed as inhibition of bacterial growth after 48 hrs by two fold dilution method. The test is classed as functional.
Test [2] has as its system Bacillus subtilis. In words: Antibacterial activity Bacillus subtilis NBRC 3757 assessed as inhibition of bacterial growth after 48 hrs by two fold dilution method. The test is classed as functional.
Test [3] has as its system Staphylococcus aureus. In words: Antibacterial activity methicillin-resistant Staphylococcus aureus ATCC 44330 assessed as inhibition of bacterial growth after 24 hrs by NCCLS protocol based microdilution method. It counts as functional.
Test [4] concerns Staphylococcus aureus. In words: Antibacterial activity methicillin-sensitive Staphylococcus aureus ATCC 25923 assessed as inhibition of bacterial growth after 24 hrs by NCCLS protocol based microdilution method. It counts as functional. In general terms: Broth dilution looks for growth in wells or tubes with falling amounts of substance.
In test [5] the test system is Staphylococcus aureus. The experiment in a line: Antibacterial activity methicillin-resistant Staphylococcus aureus USA300 assessed as inhibition of bacterial growth by CLSI based microbroth dilution assay. The test is classed as functional.
In test [6] the test system is Staphylococcus aureus. In words: Antibacterial activity methicillin-sensitive Staphylococcus aureus ATCC 29213 assessed as inhibition of bacterial growth by CLSI based microbroth dilution assay. The test is classed as functional.
In another test the test system is Bacillus anthracis. The experiment in a line: Antibacterial activity Bacillus anthracis Sterne 34F2 assessed as inhibition of bacterial growth by CLSI based microbroth dilution assay. The test is classed as functional.
In test [7] the test system is Staphylococcus aureus. The experiment in a line: Antibacterial activity methicillin-resistant Staphylococcus aureus MRSA B-10760 assessed as inhibition of bacterial growth incubated for 16 to 24 hrs by broth microdilution assay. It counts as functional. To be noted: time 16-24 hrs.
Test [8] deals with Staphylococcus aureus. In words: Antibacterial activity methicillin-resistant Staphylococcus aureus MRSA ST-1745 assessed as inhibition of bacterial growth incubated for 16 to 24 hrs by broth microdilution assay. The test is classed as functional. To be noted: time 16-24 hrs.
Test [9] relates to Staphylococcus aureus. The experiment in a line: Antibacterial activity methicillin-resistant Staphylococcus aureus MRSA ST-5457 assessed as inhibition of bacterial growth incubated for 16 to 24 hrs by broth microdilution assay. The note with it: time 16-24 hrs. The test is classed as functional.
Test [10] has as its system Staphylococcus aureus. In words: Antibacterial activity methicillin-resistant Staphylococcus aureus MRSA P-8029 assessed as inhibition of bacterial growth incubated for 16 to 24 hrs by broth microdilution assay. The test is classed as functional. To be noted: time 16-24 hrs.
The test system of test [11] is Staphylococcus aureus. In words: Antibacterial activity methicillin-resistant Staphylococcus aureus MRSA B-10732 assessed as inhibition of bacterial growth incubated for 16 to 24 hrs by broth microdilution assay. It counts as functional. The note with it: time 16-24 hrs.
Test [12] has as its system Staphylococcus aureus. In words: Antibacterial activity methicillin-resistant Staphylococcus aureus MRSA ST-3151 assessed as inhibition of bacterial growth incubated for 16 to 24 hrs by broth microdilution assay. To be noted: time 16-24 hrs. The test is classed as functional.
The subject of test [13] is Staphylococcus aureus. In words: Antibacterial activity methicillin-resistant Staphylococcus aureus MRSA P-6642 assessed as inhibition of bacterial growth incubated for 16 to 24 hrs by broth microdilution assay. To be noted: time 16-24 hrs. The test is classed as functional.
Test [14] has as its system Staphylococcus aureus. The experiment in a line: Antibacterial activity methicillin-resistant Staphylococcus aureus MRSA ST-2438 assessed as inhibition of bacterial growth incubated for 16 to 24 hrs by broth microdilution assay. The note with it: time 16-24 hrs. The test is classed as functional.
The subject of test [15] is Staphylococcus aureus. The experiment in a line: Antibacterial activity methicillin-resistant Staphylococcus aureus MRSA ST-10342 assessed as inhibition of bacterial growth incubated for 16 to 24 hrs by broth microdilution assay. It counts as functional. To be noted: time 16-24 hrs.
Test [16] deals with Staphylococcus aureus. In words: Antibacterial activity methicillin-resistant Staphylococcus aureus MRSA ST-2071 assessed as inhibition of bacterial growth incubated for 16 to 24 hrs by broth microdilution assay. To be noted: time 16-24 hrs. The test is classed as functional.
The subject of test [17] is Pseudomonas aeruginosa. In words: Antimicrobial activity against Pseudomonas aeruginosa MTCC 424 assessed as bacterial growth inhibition incubated for 24 hrs by broth micro dilution method. It counts as functional.
Test [18] has as its system Staphylococcus aureus. In words: Antimicrobial activity against Staphylococcus aureus MTCC 1430 assessed as bacterial growth inhibition incubated for 24 hrs by broth micro dilution method. The test is classed as functional.
For a further test, the system named is Escherichia coli. The experiment in a line: Antimicrobial activity against Escherichia coli MTCC 1573 assessed as bacterial growth inhibition incubated for 24 hrs by broth micro dilution method. It counts as functional.
The test system of test [19] is Bacillus subtilis. The experiment in a line: Antimicrobial activity against Bacillus subtilis MTCC 441 assessed as bacterial growth inhibition incubated for 24 hrs by broth micro dilution method. It counts as functional.
The next test concerns Klebsiella pneumoniae. In words: Antibacterial activity Klebsiella pneumoniae K4 assessed as inhibition of bacterial growth incubated for 24 hrs by microbroth dilution assay. It counts as functional.
The subject of test [20] is Pseudomonas aeruginosa. In words: Antibacterial activity Pseudomonas aeruginosa Ps12 assessed as inhibition of bacterial growth incubated for 24 hrs by microbroth dilution assay. The test is classed as functional.
The next test addresses DNA. The experiment in a line: Binding affinity to DNA (unknown origin) assessed as DNA intercalation by measuring amount of methyl green dye replaced from DNA-methyl green complex after 24 hrs by colourimetric assay. The test is classed as nucleic-acid assay.
Another test has as its system Mycobacterium kansasii. In words: Antimycobacterial activity against Mycobacterium kansasii CNCTC My 235/80 assessed as bacterial growth inhibition incubated for 5 days by resazurin dye based assay. The note with it: CNCTC My 235/80, 120 h, time 5 day. The test is classed as functional.
The test system of test [21] is Mycobacterium tuberculosis. The experiment in a line: Antimycobacterial activity against Mycobacterium tuberculosis H37Rv CNCTC My 331/88 assessed as bacterial growth inhibition incubated for 5 days by resazurin dye based assay. It counts as functional. The note with it: H37Rv CNCTC My 331/88, 120 h, time 5 day. (Alamar Blue is a resazurin reagent that responds to reducing activity.)

The subject of test [22] is Mycolicibacterium smegmatis. The experiment in a line: Antimycobacterial activity against Mycobacterium smegmatis ATCC 607 assessed as bacterial growth inhibition incubated for 48 hrs by resazurin dye based assay. It counts as functional.

Structures are written as SMILES. ≈ marks a conversion by molar mass, not a printed value.

Broadly, the MIC is the lowest concentration that inhibits growth of the organism. With `COc1cc(O)c(C(=O)/C=C/c2ccc(O)cc2)cc1CC=C(C)C`, the MIC (in the test on Micrococcus luteus; in test [1]; in the test with Bacillus subtilis [2]) was 4 µg/mL (≈ 11.8 µM) throughout.
For the compound `O=C(/C=C/c1ccccc1O)c1cccs1`, the MIC with Staphylococcus aureus [3] was 64 µg/mL (≈ 278 µM); in the test with Staphylococcus aureus [4], 32 µg/mL (≈ 139 µM).
In the case of `O=C(/C=C/c1ccc(N2CCCCC2)cc1)c1ccc(O)cc1O`, the MIC with Staphylococcus aureus [5] and with Staphylococcus aureus [6] was 3.12 µg/mL (≈ 9.66 µM) in each case.
For the compound `COc1ccc(C(=O)/C=C/c2ccc(F)cc2)cc1`, the MIC in the test with Bacillus anthracis was found to be 12.5 µg/mL (≈ 48.8 µM).
For `COc1ccc(C(=O)/C=C/c2ccc(O)cc2)c(O)c1CC=C(C)C`, the MIC (with Micrococcus luteus; in test [1]; in the test on Bacillus subtilis [2]) was 2 µg/mL (≈ 5.91 µM) in each case.
Regarding `Cc1cc(C(=O)/C=C/c2ccc(Cl)cc2)ccc1O`, in the test on Bacillus anthracis, the MIC is 12.5 µg/mL (≈ 45.8 µM).
Same read-out and setting: for `COc1ccc(/C=C/C(=O)c2ccc(O)c(C)c2)cc1Br` the value was 1.56 µg/mL (≈ 4.49 µM).
For `O=C(/C=C/c1c[nH]c2ccccc12)c1cccc(OCc2ccccc2)c1`, the MIC in the test with Staphylococcus aureus [7], with Staphylococcus aureus [8], in the test with Staphylococcus aureus [9], in the test with Staphylococcus aureus [10], with Staphylococcus aureus [11] and in the test on Staphylococcus aureus [12] was 12.5 µg/mL (≈ 35.4 µM) in each case. The MIC in the test with Staphylococcus aureus [13], in the test on Staphylococcus aureus [14], in the test on Staphylococcus aureus [15] and in the test on Staphylococcus aureus [16] was 12.5 µg/mL (≈ 35.4 µM) throughout.
For the compound `CSc1ccc(/C=C/C(=O)c2nnn(-c3c(C)c(C(F)(F)F)cc(Cl)c3Cl)c2C)cc1`, the MIC is 12.5 µg/mL (≈ 25.7 µM) with Pseudomonas aeruginosa [17], 6.25 µg/mL (≈ 12.9 µM) in the test with Staphylococcus aureus [18], 3.12 µg/mL (≈ 6.42 µM) in the test on Escherichia coli and 3.12 µg/mL (≈ 6.42 µM) in the test with Bacillus subtilis [19].
`COc1cc(C(CC(=O)c2ccc(C)cc2)SC(=S)N2CCOCC2)cc(OC)c1OC` (configuration not stated): the MIC in the test on Klebsiella pneumoniae and in the test with Pseudomonas aeruginosa [20] was 8 µg/mL (≈ 16.8 µM) throughout.
The term IC50 denotes the concentration needed to halve the response being measured. For `COc1ccc(C(=O)CC(SC(=S)N2CCOCC2)c2ccc(OC)c(OC)c2)cc1` (configuration not stated), the MIC with Klebsiella pneumoniae and with Pseudomonas aeruginosa [20] was 32 µg/mL (≈ 69.3 µM) throughout. For the same compound, on DNA, the IC50 worked out at 27.48 µg/mL (≈ 59.5 µM).
Take `CC(C)(C)c1cnc(C(=O)/C=C/c2ccccc2Cl)cn1`: the MIC in the test on Mycobacterium kansasii is 25 µg/mL (≈ 83.1 µM); in test [21], 3.13 µg/mL (≈ 10.4 µM); in test [22], 3.9 µg/mL (≈ 13 µM).
For the compound `COc1cc(C(CC(=O)c2ccc(C)cc2)SC(=S)N2CCN(Cc3ccccc3)CC2)cc(OC)c1OC` (configuration not stated), the MIC in the test with Klebsiella pneumoniae was 64 µg/mL (≈ 113 µM); in the test on Pseudomonas aeruginosa [20] it was 32 µg/mL (≈ 56.7 µM). The IC50 at DNA amounted to 30.97 µg/mL (≈ 54.8 µM).
For the compound `CC(C)(C)c1cnc(C(=O)/C=C/c2ccccc2F)cn1`, the MIC with Mycobacterium kansasii is 12.5 µg/mL (≈ 44 µM); in test [21], 6.25 µg/mL (≈ 22 µM); in [22], more than 500 µg/mL.
Turning to `Cc1cc(C(=O)/C=C/c2ccc(N3CCCCC3)cc2)ccc1O`, in the test with Bacillus anthracis, the MIC stood at 1.56 µg/mL (≈ 4.85 µM).
